# Test results published in patent publication US7691851B2, “Metalloprotease inhibitors containing a heterocyclic moiety” (Alantos Pharmaceuticals Holding, Inc., priority 2007, dated 2010).
# Target: T1, MMP-13 (Homo sapiens, UniProt P45452)
# T1 construct: 10 μL of a 50 nM stock solution of catalytic domain of MMP-13 enzyme; purchased Invitek (Berlin) 30100812
# Assay: Assay for determining MMP-13 inhibition (fluorescent substrate)
# Format: biochemical
# Details: catalytic domain of MMP-13
# Method: The inhibiting activity towards different metalloproteases of the heterocyclic metalloprotease inhibiting compounds of the present invention may be measured using any suitable assay known in the art. A standard in vitro assay for measuring the metalloprotease inhibiting activity is described in Examples 1700 to 1704.
# The typical assay for MMP-13 activity is carried out in assay buffer comprised of 50 mM Tris, pH 7.5, 150 mM NaCl, 5 mM CaCl2 and 0.05% Brij-35. Different concentrations of tested compounds are prepared in assay buffer in 50 μL aliquots. 10 μL of a 50 nM stock solution of catalytic domain of MMP-13 enzyme (produced by Alantos or commercially available from Invitek (Berlin), Cat.# 30100812) is added to the compound solution. The mixture of enzyme and compound in assay buffer is thoroughly mixed and incubated for 10 min at room temperature. Upon the completion of incubation, the assay is started by addition of 40 μL of a 12.5 μM stock solution of MMP-13 fluorescent substrate (Calbiochem, Cat. No. 444235). The time-dependent increase in fluorescence is measured at the 320 nm excitation and 390 nm emission by automatic plate multireader. The IC50 values are calculated from the initial reaction rates.
# [1] = compounds stated as lower than 100 nM
IC50 [1],"IC50 (range class, units printed within the value (nM to μM))",Structure (SMILES)
< 100 nM,–,Cc1c(C(=O)O)ccc2c1CC[C@@H]2NC(=O)c1cc(C(=O)NCc2ccc3c(c2)-n2cnnc2CO3)nc2ccnn12 [Example 1]
< 100 nM,–,Cc1c(C(=O)O)ccc2c1CC[C@@H]2NC(=O)c1cc(C(=O)NCc2ccc3c(c2)NC(=S)CO3)nc2ccnn12 [1/1]
–,100 to 20000 nM,Cc1c(C(=O)O)ccc2c1CC[C@@H]2NC(=O)c1cc(C(=O)NCc2ccc3c(c2)-n2c(noc2=O)CO3)nc2ccnn12 [Example 1/2]
